Among the data in a flash point compilation (Sun et al. 2020) are flash point values, retold here.

Structures are written as SMILES.

As to `CCCCCCCCC/C=C/CC1CC(=O)OC1=O` (stereo not given) [3-[(E)-dodec-2-enyl]oxolane-2,5-dione], the flash point came out at 178.00 °C.
In turn, `O=C(O)CCP(CCC(=O)O)CCC(=O)O` [3-[bis(2-carboxyethyl)phosphanyl]propanoic acid] returned a flash point of 202.00 °C.
The compound `CC(=O)C1C(=O)C=C(C)OC1=O` (stereo not given) [3-acetyl-6-methylpyran-2,4-dione] registered a flash point of 69.00 °C.
For `Oc1cccc(Br)c1` [3-bromophenol], the flash point is 110.00 °C.
In the case of `OCCCBr` [3-bromopropan-1-ol] it was 94.00 °C; in that of `C=C(C)CCl` [3-chloro-2-methylprop-1-ene], -13.00 °C; in that of `OCCCCl` [3-chloropropan-1-ol], 73.00 °C.
Regarding `OCC(O)CCl` (stereo not given) [3-chloropropane-1,2-diol], the flash point came to 59.00 °C.
The value for `CCOc1cc(C=O)ccc1O` [3-ethoxy-4-hydroxybenzaldehyde] was 145.00 °C; that for `COC(C)CCOC(C)=O` (stereo not given) [3-methoxybutyl acetate] was 77.00 °C; that for `Cc1cccc(C#N)c1` [3-methylbenzonitrile] was 87.00 °C.
In the case of `CC(C)=CCO` [3-methylbut-2-en-1-ol] it was 50.00 °C.
In the case of `CC(C)=CC=O` [3-methylbut-2-enal] it was 37.00 °C; in that of `CC(C)C(C)O` (stereo not given) [3-methylbutan-2-ol], 33.00 °C; in that of `CC(=O)C(C)C` [3-methylbutan-2-one], 6.00 °C.
Turning to `CC(C)CC=O` [3-methylbutanal], the flash point was 13.00 °C.
In turn, `CC(=O)OCCC(C)C` [3-methylbutyl acetate] came in with a flash point of 25.00 °C.
For `CC1CCCC(O)C1` (stereo not given) [3-methylcyclohexan-1-ol], the flash point came to 62.00 °C.
In the case of `Cc1cccc(O)c1` [3-methylphenol] it was 86.00 °C.
The value for `Cc1cccnc1` [3-methylpyridine] was 36.00 °C; that for `OCC=Cc1ccccc1` [3-phenylprop-2-en-1-ol] was 126.00 °C.
`O=CC=Cc1ccccc1` [3-phenylprop-2-enal] showed a flash point of 120.00 °C.
`C=CCOCC=C` [3-prop-2-enoxyprop-1-ene] returned a flash point of -7.00 °C.
In the case of `CCCOCCCO` [3-propoxypropan-1-ol] it was 53.00 °C; in that of `CCO[Si](CCCN)(OCC)OCC` [3-triethoxysilylpropan-1-amine], 98.00 °C; in that of `C=C(C)C(=O)OCCC[Si](OC)(OC)OC` [3-trimethoxysilylpropyl 2-methylprop-2-enoate], 92.00 °C.
`O=C1OC(=O)C2CCCCC12` (stereo not given) [3a,4,5,6,7,7a-hexahydro-2-benzofuran-1,3-dione] came in with a flash point of 149.00 °C.
The value for `CC1(C)COCN1` [4,4-dimethyl-1,3-oxazolidine] was 49.00 °C.
Regarding `COc1cc(-c2ccc(N)c(OC)c2)ccc1N` [4-(4-amino-3-methoxyphenyl)-2-methoxyaniline], the flash point was found to be 206.00 °C.
`Nc1ccc(Oc2ccc(N)cc2)cc1` [4-(4-aminophenoxy)aniline]: the flash point was 219.00 °C.
The compound `Nc1ccc(Cc2ccc(N)cc2)cc1` [4-[(4-aminophenyl)methyl]aniline] displayed a flash point of 221.00 °C.
With `Nc1ccc(O)cc1` [4-aminophenol], the flash point is 195.00 °C.
The value for `O=Cc1ccc(Cl)cc1` [4-chlorobenzaldehyde] was 88.00 °C; that for `O=C(Nc1cccc(Cl)c1)OCC#CCCl` [4-chlorobut-2-ynyl N-(3-chlorophenyl)carbamate] was 50.00 °C; that for `Oc1ccc(Cl)cc1` [4-chlorophenol] was 121.00 °C.
